Measurements taken from PubChem BioAssay (NCI).
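A five-concentration, 48-hour dose response in 96-well plates underlies each endpoint, interpolated linearly between surrounding concentrations. The concentration for 50% growth inhibition is given as GI50. TGI denotes the concentration required for complete inhibition of growth.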

What was measured:
Experiment in all cases: NCI-60 cell line screen, 48 h
[1] = test system: 786-0 renal
[2] = test system: A498 renal
[3] = test system: A549 NSCLC
[4] = test system: ACHN renal
[5] = test system: BT-549 breast
[6] = test system: CAKI-1 renal
[7] = test system: CCRF-CEM leukemia
[8] = test system: COLO 205 colon
[9] = test system: DU-145 prostate
[10] = test system: EKVX NSCLC
[11] = test system: HCC-2998 colon
[12] = test system: HCT-116 colon
[13] = test system: HCT-15 colon
[14] = test system: HL-60(TB) leukemia
[15] = test system: HOP-62 NSCLC
[16] = test system: HOP-92 NSCLC
[17] = test system: HS 578T breast
[18] = test system: HT29 colon
[19] = test system: K-562 leukemia
[20] = test system: KM12 colon
[21] = test system: LOX IMVI melanoma
[22] = test system: M14 melanoma
[23] = test system: MALME-3M melanoma
[24] = test system: MCF7 breast
[25] = test system: MDA-MB-231 breast
[26] = test system: MDA-MB-435
[27] = test system: MOLT-4 leukemia
[28] = test system: NCI-H226 lung
[29] = test system: NCI-H23 lung
[30] = test system: NCI-H460 lung
[31] = test system: NCI/ADR-RES ovarian
[32] = test system: OVCAR-3 ovarian
[33] = test system: OVCAR-4 ovarian
[34] = test system: OVCAR-5 ovarian
[35] = test system: OVCAR-8 ovarian
[36] = test system: PC-3 prostate
[37] = test system: RPMI-8226 leukemia
[38] = test system: RXF 393 renal
[39] = test system: SF-268 CNS
[40] = test system: SF-295 CNS
[41] = test system: SF-539 CNS
[42] = test system: SK-MEL-28 melanoma
[43] = test system: SK-MEL-5 melanoma
[44] = test system: SK-OV-3 ovarian
[45] = test system: SN12C renal
[46] = test system: SNB-19 CNS
[47] = test system: SNB-75 CNS
[48] = test system: SR leukemia
[49] = test system: SW-620 colon
[50] = test system: T-47D breast
[51] = test system: TK-10 renal
[52] = test system: U251 CNS
[53] = test system: UACC-257 melanoma
[54] = test system: UACC-62 melanoma

CCOC(=O)C1=C(C)N(c2ccc(OC)cc2)C2(O)C=CC(=O)C3C(=O)N(c4ccccc4)C(=O)C132 (stereo not drawn)
GI50 [1]: 2.28 µM
TGI [1]: 5.34 µM
GI50 [2]: 11.4 µM
TGI [2]: 23.5 µM
GI50 [3]: 3.29 µM
TGI [3]: 13 µM
GI50 [4]: 1.94 µM
TGI [4]: 3.93 µM
GI50 [5]: 1.93 µM
TGI [5]: 4.15 µM
GI50 [6]: 3.52 µM
TGI [6]: 10.1 µM
GI50 [7]: 1.67 µM
TGI [7]: 13 µM
GI50 [8]: 1.9 µM
TGI [8]: 3.83 µM
GI50 [9]: 1.82 µM
TGI [9]: 4.7 µM
GI50 [10]: 2.71 µM
TGI [10]: 12.1 µM
GI50 [11]: 1.71 µM
TGI [11]: 3.19 µM
GI50 [12]: 1.17 µM
TGI [12]: 2.48 µM
GI50 [13]: 1.95 µM
TGI [13]: 6.5 µM
GI50 [14]: 2.34 µM
TGI [14]: 5.82 µM
GI50 [15]: 3.72 µM
TGI [15]: 10.3 µM
GI50 [16]: 2.78 µM
TGI [16]: 7.97 µM
GI50 [17]: 3.89 µM
TGI [17]: 29.9 µM
GI50 [18]: 2.04 µM
TGI [18]: 3.75 µM
GI50 [19]: 2.68 µM
TGI [19]: > 100 µM
GI50 [20]: 1.84 µM
TGI [20]: 3.41 µM
GI50 [21]: 1.55 µM
TGI [21]: 2.96 µM
GI50 [22]: 2.2 µM
TGI [22]: 5.39 µM
GI50 [23]: 2.04 µM
TGI [23]: 3.83 µM
GI50 [24]: 2.6 µM
TGI [24]: 11.1 µM
GI50 [25]: 3.19 µM
TGI [25]: 7.77 µM
GI50 [26]: 2.72 µM
TGI [26]: 7.47 µM
GI50 [27]: 2.42 µM
TGI [27]: 5.66 µM
GI50 [28]: 2.56 µM
TGI [28]: 5.18 µM
GI50 [29]: 2.34 µM
TGI [29]: 6.66 µM
GI50 [30]: 2.08 µM
TGI [30]: 5.25 µM
GI50 [31]: 3.57 µM
TGI [31]: 22.3 µM
GI50 [32]: 1.89 µM
TGI [32]: 3.66 µM
GI50 [33]: 2.21 µM
TGI [33]: 5.89 µM
GI50 [34]: 4.08 µM
TGI [34]: 22.8 µM
GI50 [35]: 3.58 µM
TGI [35]: 17.3 µM
GI50 [36]: 2.89 µM
TGI [36]: 10.1 µM
GI50 [37]: 1.95 µM
TGI [37]: 5.15 µM
GI50 [38]: 1.81 µM
TGI [38]: 3.42 µM
GI50 [39]: 3.51 µM
TGI [39]: 18.4 µM
GI50 [40]: 15.1 µM
TGI [40]: 28.6 µM
GI50 [41]: 2.27 µM
TGI [41]: 5.6 µM
GI50 [42]: 1.86 µM
TGI [42]: 4.29 µM
GI50 [43]: 1.51 µM
TGI [43]: 3.05 µM
GI50 [44]: 9.92 µM
TGI [44]: 21.7 µM
GI50 [45]: 4.09 µM
TGI [45]: 12.5 µM
GI50 [46]: 4.74 µM
TGI [46]: 16.8 µM
GI50 [47]: 4.16 µM
TGI [47]: 13.8 µM
GI50 [48]: 1.59 µM
TGI [48]: 5.26 µM
GI50 [49]: 1.88 µM
TGI [49]: 3.83 µM
GI50 [50]: 1.79 µM
TGI [50]: 6.08 µM
GI50 [51]: 3.48 µM
TGI [51]: 9.05 µM
GI50 [52]: 2.14 µM
TGI [52]: 5.21 µM
GI50 [53]: 2.78 µM
TGI [53]: 11 µM
GI50 [54]: 2.41 µM
TGI [54]: 5.47 µM
